Columns and labels:
Type in all cases: cell-based
[1] = system: T47D palbo-resistant cells; experiment: CellTiter-Lumi cell viability assay, T47D palbo-resistant cells, 6 days (FIG. 4); conditions: Homo sapiens, 144 h
Method: Furthermore, we developed one ER^+ breast cancer T47D model with acquired resistance after long period of treatment with 1 μM palbociclib (over IC90). Cells were deemed resistant when growing in the presence of palbo at the same rate as parental cells. Palbo resistance was determined by CellTiter-Lumi cell viability assay (FIG. 4, IC50>10,000 nM).

CCND1 = experiment: Immunoblotting of CCND1 protein level in Calu-1 and MCF7 cells (FIG. 1A-1B)
Method: (§1) Calu-1 cells were treated with heterobifunctional compound CPD-10, or CDK4/6 inhibitor palbociclib at indicated concentrations for 4 hours (FIG. 1A). MCF7 cells were deprived of serum for 2 hours followed by treatment with CPD-10, or palbociclib at indicated concentrations for 24 hours (FIG. 1B).
(§2) Antibody and Reagent Anti-cyclin D1 (29785), anti-cyclin D2 (3741S), anti-cyclin D3 (2936S), anti-CDK4 (127905), anti-CDK6 (3136S), anti-phospho-Rb (8516S), anti-FoxM1 (54365), anti-cyclinA2(4656S), anti-vinculin antibody (187995) antibodies were purchased from Cell Signaling Technology. HRP-conjugated anti-α-tubulin antibody and anti-α-GAPDH antibody were purchased from GNI. Media, and other cell culture reagents were purchased from Thermo Fisher Scientific. CellTiter-Glo Luminescent Assay kit was purchased from Promega.
Calu-1, T47D, MCF7, HCC1428 and other cells were cultured at 37° C. with 5% CO2 in RPMI 1640 or DMEM medium supplemented with 10% fetal bovine serum. Cells were authenticated using the short tandem repeat (STR) assays. Mycoplasma test results were negative. For palbo-resistant cell model, T47D cells were cultured long-term to resistance in the presence of 1 μM Palbociclib. Cells were deemed resistant when growing in the presence of Palbo at the same rate as parental cells.
Cultured cells were washed with cold PBS once and lysed in cold RIPA buffer supplemented with protease inhibitors and phosphatase inhibitors (Beyotime Biotechnology). The solutions were then incubated at 4 ? for 30 min with gentle agitation to fully lysed cells. Cell lysates were centrifuged at 13,000 rpm for 10 min at 4 ? and pellets were discarded. Total protein concentrations in the lysates were determined following BCA assays (Beyotime Biotechnology). Cell lysates were mixed with Laemmli loading buffer and heated at 99° C. for 5 min. Proteins were resolved on SDS-PAGE and visualized using Western ECL Substrate kits on a ChemiDoc MP Imaging system (Bio-Rad). Protein bands were quantitated using the Image Lab software provided by Bio-Rad.

MCF7 cells = experiment: Anti-proliferation (viability) of MCF7 cells (Table 7, FIG. 2B); conditions: Homo sapiens, MCF7, MCF7 cells, 3-6 days, 10-point serial dilution; read-out: GI IC50 in MCF-7
[2] = system: CCND1, CCND3, and CDK4 in Calu-1 cells; experiment: Immunoblot of CCND1, CCND3 and CDK4 protein levels in Calu-1 cells (FIG. 1A, 4 hours); conditions: Calu-1, reduction of CCND1, CCND3, and CDK4 protein levels
Method: Specific exemplary heterobifunctional compounds were characterized in Calu-1, MCF7, T47D and other cells. Cells that express cyclin D1-3 and CDK4/6 proteins were treated with heterobifunctional compounds disclosed herein at indicated concentrations. MCF7 cells were deprived of serum for 2 hours followed by the treatment with heterobifunctional compounds. Cells were collected, lysed and subject to immunoblotting using an antibody specific to CCND1, CCND2, CCND3, CDK4, or FoxM1, cyclin A2, or phosphorylated Rb (S807/811) proteins. Tubulin or GAPDH was used as the loading control. DMSO treatment was used as the negative control.

CDK4 = CDK4 (Homo sapiens, UniProt P11802+Q16531); experiment: CDK4 percentage degradation in Calu-1 cells (Table 6); set-up: Cells that express cyclin D1-3 and CDK4/6 proteins were treated with heterobifunctional compounds; endogenous in cells; host or cells: Calu-1; conditions: 16 hours
How it was run: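 Calu-1 cells exposed to heterobifunctional compounds at 40 nM or 200 nM for 16 h. Cyclin D1 and CDK4 levels measured by Western blot of RIPA lysates (BCA-normalised loading), bands quantified by densitometry and expressed as percentage degradation.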

HCC1428 cells = experiment: Annexin V apoptosis flow cytometry, HCC1428 (FIG. 3B); conditions: HCC1428, dose approximating IC90, 6 days
Method: (§3) T47D cells were treated with DMSO, palbociclib, heterobifunctional compound CPD-10 for 6 days at doses approximating IC50 and IC90 concentrations as indicated (FIG. 3A). HCC1428 cells were treated with DMSO, palbociclib, heterobifunctional compound CPD-10, or its negative control compound CPD-143 for 6 days at doses approximating IC90 concentrations as indicated (FIG. 3B). Cells were harvested by trypsinization, staining was carried out using the Annexin V Apoptosis Detection Kit.
(§4) Assays were performed on the CytoFLEX Cytometer (Beckman Coulter), and data were analyzed using CytExpert software. For cell death and apoptosis analysis, cells were harvested by trypsinization, staining was carried out using the Annexin V Apoptosis Detection Kit (BD Biosciences). Briefly, cells were resuspended in 1× binding buffer and incubated with fluorochrome-conjugated Annexin V and 7-AAD for 15 min in darkness at room temperature.

FoxM1 = experiment: Immunoblotting of FoxM1 protein level (FIG. 1A-1B); conditions: Calu-1 (4 hours), MCF7 (24 hours)
Method: as §1, §2
(§5) Calu-1, T47D, MCF7, HCC1428 and other cells were cultured at 37° C. with 5% CO2 in RPMI 1640 or DMEM medium supplemented with 10% fetal bovine serum. Cells were authenticated using the short tandem repeat (STR) assays. […]
(§6) Cultured cells were washed with cold PBS once and lysed in cold RIPA buffer supplemented with protease inhibitors and phosphatase inhibitors (Beyotime Biotechnology). […] Total protein concentrations in the lysates were determined following BCA assays (Beyotime Biotechnology). […] Protein bands were quantitated using the Image Lab software provided by Bio-Rad.

cyclin A2 = experiment: Immunoblotting of cyclin A2 protein level (FIG. 1A-1B); conditions: Calu-1 (4 hours), MCF7 (24 hours)
Method: as §1, §2, §5, §6

T47D cells [3] = experiment: Annexin V apoptosis flow cytometry, T47D (FIG. 3A); conditions: 6 days
Method: as §3, §4

T47D cells [4] = experiment: Flow cytometric analysis of Annexin V/7-AAD stained T47D cells (apoptosis), 6 days (FIG. 3A)
Method: as §3, with “IC50and” for “IC50 and”, “Kit. The percentages of early apoptotic (Annexin V^+7-AAD^−, lower right quadrant), late apoptotic (Annexin V^+7-AAD^+, upper right quadrant) and necrotic cells (Annexin V^−7-AAD^+, upper left quadrant) are indicated on dot plots.” for “Kit.”

Sequence of CDK4 (P11802 2-303 limits assumed): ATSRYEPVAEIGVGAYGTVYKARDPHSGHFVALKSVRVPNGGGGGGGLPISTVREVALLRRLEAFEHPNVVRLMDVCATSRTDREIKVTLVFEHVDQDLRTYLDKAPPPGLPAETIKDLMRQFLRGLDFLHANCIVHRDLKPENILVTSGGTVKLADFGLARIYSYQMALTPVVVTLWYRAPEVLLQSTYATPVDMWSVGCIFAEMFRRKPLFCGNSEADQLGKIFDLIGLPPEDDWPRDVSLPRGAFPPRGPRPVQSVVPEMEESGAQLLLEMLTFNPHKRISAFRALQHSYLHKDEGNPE
Sequence of CDK4 (P24385 whole entry partner): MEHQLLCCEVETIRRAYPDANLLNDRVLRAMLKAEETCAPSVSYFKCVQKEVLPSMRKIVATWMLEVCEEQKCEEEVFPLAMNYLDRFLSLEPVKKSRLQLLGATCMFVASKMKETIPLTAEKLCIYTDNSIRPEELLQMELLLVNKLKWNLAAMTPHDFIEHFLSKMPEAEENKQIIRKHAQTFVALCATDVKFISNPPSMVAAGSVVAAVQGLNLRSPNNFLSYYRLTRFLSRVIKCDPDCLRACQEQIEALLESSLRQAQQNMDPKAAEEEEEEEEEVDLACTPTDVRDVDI
Sequence of CDK4 (Q16531 2-1140 limits assumed): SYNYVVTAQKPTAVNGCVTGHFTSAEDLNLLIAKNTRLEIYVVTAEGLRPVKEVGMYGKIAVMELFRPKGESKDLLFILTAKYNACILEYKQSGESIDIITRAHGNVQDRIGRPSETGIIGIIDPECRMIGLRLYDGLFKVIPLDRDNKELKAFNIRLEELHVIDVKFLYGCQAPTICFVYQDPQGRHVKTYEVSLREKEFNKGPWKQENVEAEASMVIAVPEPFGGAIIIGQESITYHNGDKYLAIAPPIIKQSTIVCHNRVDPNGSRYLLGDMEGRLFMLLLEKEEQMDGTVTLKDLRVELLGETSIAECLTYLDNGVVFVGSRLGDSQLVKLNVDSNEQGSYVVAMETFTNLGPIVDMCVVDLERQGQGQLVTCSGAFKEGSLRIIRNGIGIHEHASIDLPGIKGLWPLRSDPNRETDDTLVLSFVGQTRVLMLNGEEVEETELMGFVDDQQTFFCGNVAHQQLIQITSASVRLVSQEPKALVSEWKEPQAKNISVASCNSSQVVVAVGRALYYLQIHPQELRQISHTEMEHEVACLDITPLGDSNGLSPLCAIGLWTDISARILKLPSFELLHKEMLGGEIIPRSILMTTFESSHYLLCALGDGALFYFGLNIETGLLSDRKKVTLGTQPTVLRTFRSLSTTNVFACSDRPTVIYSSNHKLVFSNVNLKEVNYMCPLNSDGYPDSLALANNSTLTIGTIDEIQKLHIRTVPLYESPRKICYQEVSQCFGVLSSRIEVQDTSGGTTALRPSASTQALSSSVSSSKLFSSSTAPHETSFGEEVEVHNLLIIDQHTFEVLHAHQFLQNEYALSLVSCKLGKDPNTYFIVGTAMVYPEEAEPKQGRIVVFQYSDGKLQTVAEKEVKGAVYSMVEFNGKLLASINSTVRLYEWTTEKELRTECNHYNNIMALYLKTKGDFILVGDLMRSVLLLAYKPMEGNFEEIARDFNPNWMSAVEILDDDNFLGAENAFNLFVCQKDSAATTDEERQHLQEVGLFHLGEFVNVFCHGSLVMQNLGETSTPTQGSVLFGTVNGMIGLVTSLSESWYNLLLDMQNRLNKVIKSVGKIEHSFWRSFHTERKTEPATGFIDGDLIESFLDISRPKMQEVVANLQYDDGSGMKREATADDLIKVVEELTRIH

IC50 [1]: 33 nM
IC50 (MCF7 cells): 50 to 100 nM
DC50 [2]: < 5 nM
inhibition at 0.04 µM (CDK4; 40 nM): 50 to 80%
inhibition at 0.2 µM (CDK4; 200 nM): > 80%
SMILES: CNc1ccc(C(=O)Nc2ccc(N(C)C)nn2)c(NCCCCCCCNC(=O)CN2CCN(c3ccc(Nc4ncc5c(C)c(C(C)=O)c(=O)n(C6CCCC6)c5n4)nc3)CC2)n1 [CPD-10, 2-((7-(2-(4-(6-((6-acetyl-8-cyclopentyl-5-methyl-7-oxo-7,8-dihydropyrido[2,3-d]pyrimidin-2-yl)amino)pyridin-3-yl)piperazin-1-yl)acetamido)heptyl)amino)-N-(6-(dimethylamino)pyridazin-3-yl)-6-(methylamino)nicotinamide]
CCND1 protein level (CCND1; Calu-1 cells, 4 hours): reduced CCND1, CCND3, and CDK4 protein levels in a concentration-dependent manner in both cell lines
CCND1 protein level (CCND1; MCF7 cells, serum deprived 2 hours, treated 24 hours): reduced CCND1, CCND3, and CDK4 protein levels in a concentration-dependent manner in both cell lines
Annexin V+ population (HCC1428 cells): 55.8%
FoxM1 protein level (FoxM1): inhibited downstream FoxM1 and cyclin A2 protein levels, and Rb phosphorylation in a concentration-dependent manner
cyclin A2 protein level (cyclin A2): inhibited downstream FoxM1 and cyclin A2 protein levels, and Rb phosphorylation in a concentration-dependent manner
Annexin V+ population (T47D cells [3]; 15 nM): 20.9%
Annexin V+ population (T47D cells [3]; 200 nM): 62.2%
Annexin V+ population (T47D cells [4]; 15 nM): 20.9%
Annexin V+ population (T47D cells [4]; 200 nM): 62.2%

From patent publication US20260297081A1, “COMPOUNDS AND METHODS OF TREATING CANCERS” (Cullgen Inc., priority 2023, published 2026)
